Target: T1, αVβ3 (Homo sapiens, UniProt P06756)
T1 construct: Platelets express a second integrin with a β3 subunit, αVβ3; endogenous in cells; host or cells: gel-filtered human platelets
Assay: Platelet adhesion to immobilized osteopontin
Format: cell-based
Experimental: The integrin αVβ3 mediates adhesion of platelets to the matrix protein osteopontin, potentially exposed to the circulating blood by rupture of an atherosclerotic plaque. […] The potency of anti-αv in inducing platelet adhesion to osteopontin was approximately 10-fold lower than that of anti-αIIb in inducing platelet aggregation (FIG. 11). Adhesion of platelets in 100 μl aliquots of gel-filtered human platelets to immobilized osteopontin was induced by the indicated concentrations of anti-αV, either alone or in the presence of the calcium chelator 2.5 mM EDTA or the global platelet signal transduction inhibitor 2 μM PGE1. Platelets stimulated by 20 μM ADP served as a positive control. Platelet adhesion was quantitated using a colorimetric assay based on measurement of platelet acid phosphatase activity. The data shown in FIG. 11 are the mean and standard error of measurements made in triplicate. Anti-αV-induced adhesion was prevented by agents that inhibit the interaction of αVβ3's extracellular ligand-binding site with osteopontin, including EDTA or the specific RGD-containing αVβ3 antagonist XJ735, confirming that anti-αV induced platelet adhesion to osteopontin is mediated by αVβ3.
Platelet adhesion to osteopontin was measured as previously described. See Fleming K G J. Mol. Biol. 323, 563-571 (2002). Briefly, 96-well flat bottom microtiter plates (Immulon 2, Dynatech, Chantilly Va.) were coated with 5 μg/ml of recombinant osteopontin dissolved in 50 mM NaHCO3 buffer, pH 8.0, containing 150 mM NaCl. Unoccupied protein binding sites on the wells were blocked with 5 mg/ml bovine serum albumin dissolved in the same buffer. One hundred μl aliquots of a gel-filtered platelet suspension containing ≈2-5×10^6 platelets were added to the protein-coated wells in the absence or presence of anti-αV or ADP. Following an incubation for 30 min at 37° C. without agitation, the plates were washed four times and the number of adherent platelets measured using a colorimetric assay that measure platelet acid phosphatase activity. The polypeptide was added from a DMSO solution such that the final concentration of DMSO was no greater than 0.5%. All controls also had 0.5% DMSO in the buffer.

T1 sequence (P06756 891-1048 limits assumed): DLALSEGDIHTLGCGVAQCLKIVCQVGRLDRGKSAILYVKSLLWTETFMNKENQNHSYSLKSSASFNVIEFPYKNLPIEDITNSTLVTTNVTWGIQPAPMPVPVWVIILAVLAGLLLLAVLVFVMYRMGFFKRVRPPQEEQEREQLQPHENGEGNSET
T1 sequence (P06756 31-889 partner limits assumed): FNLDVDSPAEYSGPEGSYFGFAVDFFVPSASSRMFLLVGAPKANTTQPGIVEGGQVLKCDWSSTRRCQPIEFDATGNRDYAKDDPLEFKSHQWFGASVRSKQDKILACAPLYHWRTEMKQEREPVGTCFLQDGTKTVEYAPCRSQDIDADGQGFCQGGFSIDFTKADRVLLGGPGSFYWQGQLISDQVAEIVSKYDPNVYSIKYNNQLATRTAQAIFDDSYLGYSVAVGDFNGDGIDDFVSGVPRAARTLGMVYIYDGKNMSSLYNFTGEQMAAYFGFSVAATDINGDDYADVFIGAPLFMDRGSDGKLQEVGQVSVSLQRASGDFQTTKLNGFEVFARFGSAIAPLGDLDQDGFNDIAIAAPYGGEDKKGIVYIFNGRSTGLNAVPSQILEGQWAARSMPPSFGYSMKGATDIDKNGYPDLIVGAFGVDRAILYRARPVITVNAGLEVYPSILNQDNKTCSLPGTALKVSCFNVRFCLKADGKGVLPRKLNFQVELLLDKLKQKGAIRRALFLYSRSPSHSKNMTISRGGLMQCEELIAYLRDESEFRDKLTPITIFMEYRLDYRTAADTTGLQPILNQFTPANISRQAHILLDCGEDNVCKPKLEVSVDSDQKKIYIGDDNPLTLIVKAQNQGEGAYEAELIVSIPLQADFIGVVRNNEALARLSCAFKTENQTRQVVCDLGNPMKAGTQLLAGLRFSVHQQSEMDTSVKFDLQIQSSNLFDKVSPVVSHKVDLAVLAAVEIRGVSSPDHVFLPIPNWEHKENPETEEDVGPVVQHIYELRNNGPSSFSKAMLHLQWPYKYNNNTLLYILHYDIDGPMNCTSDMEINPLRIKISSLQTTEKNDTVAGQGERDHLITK
T1 sequence (P05106 27-788 partner): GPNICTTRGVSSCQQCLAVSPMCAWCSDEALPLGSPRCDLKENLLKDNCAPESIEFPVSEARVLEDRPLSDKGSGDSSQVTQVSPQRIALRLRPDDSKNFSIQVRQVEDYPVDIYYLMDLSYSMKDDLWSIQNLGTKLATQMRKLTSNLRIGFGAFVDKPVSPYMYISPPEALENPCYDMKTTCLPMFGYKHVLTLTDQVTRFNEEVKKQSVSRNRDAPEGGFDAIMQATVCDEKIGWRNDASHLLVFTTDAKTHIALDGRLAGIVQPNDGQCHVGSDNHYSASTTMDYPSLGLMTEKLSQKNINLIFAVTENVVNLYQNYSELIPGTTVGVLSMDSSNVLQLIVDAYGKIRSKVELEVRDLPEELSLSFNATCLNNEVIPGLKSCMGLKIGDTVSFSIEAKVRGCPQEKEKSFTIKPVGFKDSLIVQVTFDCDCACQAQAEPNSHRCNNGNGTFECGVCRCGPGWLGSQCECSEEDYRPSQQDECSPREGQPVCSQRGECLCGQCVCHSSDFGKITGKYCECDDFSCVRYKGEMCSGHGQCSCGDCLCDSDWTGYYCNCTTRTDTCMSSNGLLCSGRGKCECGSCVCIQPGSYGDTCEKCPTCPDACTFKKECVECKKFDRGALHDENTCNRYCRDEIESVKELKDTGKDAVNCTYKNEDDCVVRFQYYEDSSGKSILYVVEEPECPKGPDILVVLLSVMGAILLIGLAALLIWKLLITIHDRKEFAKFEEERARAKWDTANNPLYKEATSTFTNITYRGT

AYVFILLSFILGTLLGFLVMFWA [anti-αV]
potency in inducing platelet adhesion to osteopontin, lower than that of anti-αIIb in inducing platelet aggregation: approximately 10 fold
induced adhesion after pre-incubating the platelets with PGE1 (2 μM PGE1): only minimally affected
induced adhesion in the presence of EDTA or αVβ3 antagonist XJ735 (2.5 mM EDTA): prevented
platelet adhesion to osteopontin (absence of pharmacological platelet agonists): induced robust platelet adhesion to osteopontin
